{"source": "paper PMC3651166", "about": "“Differential Cytotoxic Activity of a Novel Palladium-Based Compound on Prostate Cell Lines, Primary Prostate Epithelial Cells and Prostate Stem Cells” (PLoS ONE, 2013)", "key": {"[1]": {"tested_on": "LC3-II", "test": "Western blotting for autophagy, cell lines", "assay_type": "cell-based, human", "procedure": "Following drug treatment, cell lysates were harvested using Cytobuster Protein Extraction Reagent (71009, EMD Millipore, Darmstadt, Germany) with protease inhibitors (cOmplete, EDTA-free Protease Inhibitor Cocktail Tablets, Roche Applied Science, UK). 20 µg of protein extract were loaded on 12% SDS-PAGE gels and wet-transferred to a PVDF membrane. Antibodies used include: monoclonal anti-β-actin 1∶5000 (A5316, Sigma-Aldrich), anti-LC3B 1∶3000 (Ab51520, abcam), cleaved caspase-3 (Asp175) 1∶1000 (9661S, Cell Signaling Technology) and secondary antibodies were Rabbit anti-mouse-HRP 1∶10000 (P0260, Dako) and anti-rabbit IgG HRP-linked 1∶5000 (Cell Signaling Technology Inc. 7074S). Kaleidoscope protein marker was run on each gel (161-0324, Bio-Rad)."}, "[2]": {"tested_on": "PNT1A, PNT2-C2, BPH-1, PC-3, LNCaP, P4E6", "test": "MTS assay, panel of six prostate cell lines", "assay_type": "cell-based, human", "conditions": "100 µM, 72 h", "procedure": "In this study, six different prostate cell lines (PNT1A, PNT2-C2, BPH-1, PC-3, LNCaP, P4E6) were used (Table 1). These cell lines encompass the spectrum of cellular differentiation status (basal, intermediate and luminal phenotypes), as well as the spectrum of normal, early cancer and late cancer. BPH-1 is derived from benign prostate hyperplasia (BPH), while PNT2-C2 and PNT1A are derived from normal prostate. PC-3, LNCaP and P4E6 are cancer cell lines. LNCaP, PNT2-C2, PNT1A were grown in RPMI medium with 10% FCS (foetal calf serum); PC-3 was grown in Ham’s F-12 medium with 7% FCS; BPH-1 was grown in RPMI medium with 5% FCS; P4E6 was grown in KSFM (Keratinocyte serum free medium) with 2% FCS. No antibiotics were used in any media. The cells were incubated at 37°C in a humidified atmosphere containing 5% CO2.\nThis assay was performed for the initial screening of the effect of the Pd complex on the cell lines and the whole cell population of primary cultures. The CellTiter 96® Aqueous One Solution Cell Proliferation Assay kit (G3580, Promega, Madison, WI, USA) was used and the manufacturer’s instructions were followed. […] Following 2.5 h incubation at 37°C, the absorbance was read at 485 nm using a plate reader (PolarStar Optima, BMG Labtech, UK). Percent viability was calculated using the formula (% Viability = [(Sample Absorbance/Control Absorbance)]×100. […]"}, "[3]": {"tested_on": "primary prostate epithelial cells", "test": "Flow cytometry cell cycle analysis, primary cells", "assay_type": "cell-based, human", "conditions": "primary cells", "procedure": "Following drug treatment, floating cells in the media were pooled with adherent cells, which were collected by trypsinisation. Following centrifugation cells were resuspended in 0.5 ml PBS. Cells were fixed in 2 ml ice cold 70% ethanol, which was added in a dropwise fashion while vortexing. Cells were incubated on ice for 30 min then washed in 5 ml PBS and resuspended in 0.4 ml PBS. Following storage at 4°C overnight, 50 µl of RNAse (1 mg/ml) and 50 µl of propidium iodide (1 mg/ml) were added to the cells. Following incubation at 37°C for 30 min the cells were analysed for 2N and 4N DNA content on a flow cytometer (Cyan ADP Analyser, Beckman Coulter)."}, "[4]": {"tested_on": "stem cells (SCs), transit-amplifying cells (TAs) and committed basal cells (CBs)", "test": "ATP viability assay on fractionated primary cells", "assay_type": "cell-based", "procedure": "Epithelial cells from human tumour or BPH materials were cultured for several weeks and the cells treated at very low passages. The cultured basal cell population were trypsinized, resuspended in SCM and then plated on BSA-blocked collagen I-coated plates. […] The cells that attached to substratum were trypsinised, resuspended in MACs buffer and incubated with CD133-microbeads (Cat no. 130-050-801, Miltenyi Biotec Inc., Auburn, CA, USA). MACs MS columns (Cat no. 130-042-201, Miltenyi Biotec Inc., Auburn, CA, USA) were used to select the CD133^+ and CD133^− cells. Finally, the three cell populations were obtained: stem cells (SCs) - α2β1integrin^hi/CD133^+, transit-amplifying cells (TAs) - α2β1integrin^hi/CD133^− and committed basal cells (CBs) - α2β1integrin^lo.\nThis assay was employed for the bioluminescent determination of the adenosine 5′-triphosphate (ATP) released from fractionated living cells (cancer stem cells, transit amplifying cells and committed basal cells). As ATP is rapidly degraded in dead cells, high intracellular levels provide a selective assay for living cells. The ATP-bioluminescent somatic cell assay kit (FLASC, Sigma-Aldrich, Saint Louis, MO, USA) was used with protocol modifications. Briefly, 50–500 cells per well were seeded in a collagen-coated 96 well plate in triplicate. After treating cells for 72 h, 150 µL of medium was removed from each well. 50 µL of cell extraction reagent was added into each original well. Following 20 min incubation at RT, 50 µL of cell extract was transferred to a white 96-well plate. Finally, 50 µL of ATP assay mix solution was added into the wells and luminescence was read using a plate reader (PolarStar Optima, BMG Labtech, UK). Percent viability was calculated using the formula (% Viability = [(Sample RLU/Control RLU)]x100 where RLU refers to relative light units."}}, "note": "“Also recorded” adds a separate entry of the source."}
{"substance": "[PdCl(terpy)](sac)⋅2 H2O [Pd complex]", "values": [{"measurement": "LC3-II expression (autophagy)", "setting": "[1]; BPH-1, PNT2-C2 and P4E6 cells", "value": "clear increase in the expression of LC3-II"}, {"measurement": "levels of LC3-I and LC3-II", "setting": "[1]; LNCaP and PC3 cells, any treatment", "value": "did not change dramatically or in a dose-dependent fashion"}, {"measurement": "growth inhibition of all cell lines", "setting": "[2]", "value": "almost completely"}, {"measurement": "cells with more than 4N DNA content", "setting": "[3]", "value": "increase in cells with more than 4N DNA content"}, {"measurement": "sub-G1 content", "setting": "[3]", "value": "clear dose response showing increase in sub-G1 content"}, {"measurement": "toxicity compared to cisplatin", "setting": "[4]; 6 µM range, ATP assay", "value": "comparable toxicity to cisplatin"}, {"measurement": "anti-growth effect compared to 25 µM Pd complex and 25 µM etoposide", "setting": "[4]; 6.25 µM, 72 h, ATP assay, SC, TA, CB", "value": "less than 25 µM Pd complex but still more cytotoxic than 25 µM etoposide"}, {"measurement": "cytotoxicity compared to 25 µM etoposide", "setting": "[4]; 25 µM, 72 h, ATP assay, stem cells (also TA, CB)", "value": "significantly more cytotoxic; also recorded: much more potent cytotoxic activity than etoposide"}, {"measurement": "cell killing", "setting": "[4]; 50 µM, data not shown", "value": "killed all cells"}]}
